Results: patent US5338725A, “Anti-aggregatory agents for platelets” (The Research Foundation of the State University of New York, priority 1992, dated 1994)
Starred links: 1 amine or outer side, 2 acyl side, 3 side chain; linkers in the order of their positions; H or OH if unused. Positions of bridges follow the written chain, without caps; N, C: chain ends. Non-standard residues stand in square brackets, D forms with d. Residues, ends and D or L forms follow the SMILES beside them. Chains are numbered I, II in the order given. X2 = O=C(O)CNC(=O)c1cc(N[*:1])cc(N[*:2])c1; X1 = NC(=O)c1cc(N[*:1])cc(N[*:2])c1; Adipoyl = O=C(CCCCC(=O)[*:2])[*:1]; Glutaryl = O=C(CCCC(=O)[*:2])[*:1]; 3Abz = Nc1cccc(C(=O)O)c1; 4Abz = Nc1ccc(C(=O)O)cc1; 2Abz = Nc1ccccc1C(=O)O

Biological target: human platelet-rich plasma (Homo sapiens, UniProt P05106+P08514)
Sequence (P08514 32-1039): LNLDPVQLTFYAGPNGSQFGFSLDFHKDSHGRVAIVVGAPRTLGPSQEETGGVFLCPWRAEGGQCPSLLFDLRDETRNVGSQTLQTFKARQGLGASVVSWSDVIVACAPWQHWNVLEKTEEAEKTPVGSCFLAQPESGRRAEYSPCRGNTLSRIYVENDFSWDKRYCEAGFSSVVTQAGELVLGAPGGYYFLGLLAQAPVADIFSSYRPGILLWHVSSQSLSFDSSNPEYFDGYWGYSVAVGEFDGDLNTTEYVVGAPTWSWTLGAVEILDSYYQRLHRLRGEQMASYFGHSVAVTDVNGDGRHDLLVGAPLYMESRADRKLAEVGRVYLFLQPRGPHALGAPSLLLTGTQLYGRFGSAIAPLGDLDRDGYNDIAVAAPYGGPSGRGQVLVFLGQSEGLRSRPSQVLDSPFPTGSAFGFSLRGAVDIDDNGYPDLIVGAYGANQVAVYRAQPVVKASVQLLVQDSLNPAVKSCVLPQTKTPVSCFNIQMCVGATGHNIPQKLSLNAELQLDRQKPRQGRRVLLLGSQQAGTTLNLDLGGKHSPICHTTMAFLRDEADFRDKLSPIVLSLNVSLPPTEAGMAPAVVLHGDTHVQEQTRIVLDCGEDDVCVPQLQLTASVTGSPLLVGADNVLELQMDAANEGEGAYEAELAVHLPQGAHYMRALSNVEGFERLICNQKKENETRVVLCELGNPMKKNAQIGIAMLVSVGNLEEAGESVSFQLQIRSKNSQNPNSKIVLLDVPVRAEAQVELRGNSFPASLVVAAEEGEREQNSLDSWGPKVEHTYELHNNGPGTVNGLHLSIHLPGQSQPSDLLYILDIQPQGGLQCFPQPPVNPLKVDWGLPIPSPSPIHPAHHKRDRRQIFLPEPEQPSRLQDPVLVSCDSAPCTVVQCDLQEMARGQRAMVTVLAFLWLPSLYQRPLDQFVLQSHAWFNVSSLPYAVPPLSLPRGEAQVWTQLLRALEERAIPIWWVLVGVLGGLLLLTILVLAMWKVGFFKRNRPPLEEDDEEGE
Sequence (P05106 27-788): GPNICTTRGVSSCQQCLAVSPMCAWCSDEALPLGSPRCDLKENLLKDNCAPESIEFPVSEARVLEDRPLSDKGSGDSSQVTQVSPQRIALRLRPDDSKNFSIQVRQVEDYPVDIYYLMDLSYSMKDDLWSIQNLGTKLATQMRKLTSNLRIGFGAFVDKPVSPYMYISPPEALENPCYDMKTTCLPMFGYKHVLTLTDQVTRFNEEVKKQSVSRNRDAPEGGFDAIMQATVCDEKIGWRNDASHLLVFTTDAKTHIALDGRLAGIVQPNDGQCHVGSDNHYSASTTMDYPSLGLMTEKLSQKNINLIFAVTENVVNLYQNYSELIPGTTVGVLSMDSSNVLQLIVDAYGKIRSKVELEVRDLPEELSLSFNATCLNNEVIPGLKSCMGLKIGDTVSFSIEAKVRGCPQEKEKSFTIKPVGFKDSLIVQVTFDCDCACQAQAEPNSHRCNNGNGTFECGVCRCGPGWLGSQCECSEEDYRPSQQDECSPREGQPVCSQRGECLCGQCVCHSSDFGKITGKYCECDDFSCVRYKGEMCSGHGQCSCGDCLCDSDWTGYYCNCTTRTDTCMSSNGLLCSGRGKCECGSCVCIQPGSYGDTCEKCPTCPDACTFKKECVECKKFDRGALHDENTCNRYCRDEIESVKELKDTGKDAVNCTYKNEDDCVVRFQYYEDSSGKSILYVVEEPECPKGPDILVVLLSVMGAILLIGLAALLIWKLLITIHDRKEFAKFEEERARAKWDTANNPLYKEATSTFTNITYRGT
Assay: In vitro inhibition of ADP-induced aggregation of human platelet-rich plasma (Coller assay)
Assay type: cell-based
Settings: adjusted for fibrinogen concentration (ca. 30 times lower than Coller assay value; 0.1 mg/mL fibrinogen)
Method: 1. In vitro Inhibition of Aggregation of Human Platelet-Rich Plasma
Whole blood (10 ml) was collected from human volunteers and anticoagulated by addition of […] of 40% sodium citrate. Platelet-rich plasma (PRP) was prepared by low speed centrifugation (700 G for 3.5 min at 22° C.). The PRP was removed and the remaining blood was centrifuged at 2000 G for 10 min at 22 ° C. to obtain platelet poor plasma (PPP). The PRP was diluted with PPP to give a final platelet count of 300 000μL with a Coulter Acounter Model ZM (Coulter, Hialeah, Fla.). This diluted PRP (400μL) was placed in a siliconized glass cuvette equipped with a magnetic stirrer and stirred at 1200 rpm at 37° C. Various concentrations of the peptides (36μL) in TRIS buffer (0.01 M TRIS, 0.15 M NaCl, and 0.05% sodium azide, pH 7.4) was added and incubated for 3 rain before platelet aggregation was induced by addition of 54μL of 100μM ADP in HEPES buffer (0.01 M HEPES and 0.15 M NaCl, pH 7.5). The platelet aggregation was determined by a change in light transmission through the PRP on a Lumi Aggregometer 400rS (ChronoLog, Hayertown, PA). The ability of the peptides to inhibit platelet aggregation was evaluated and the IC50 was determined as the concentration of peptide required to produce 50% inhibition of the response to ADP in the presence of the TRIS buffer.
The assay system developed by Coller, which is used throughout the experiment, is different from conventional assay systems in certain aspects. First, the platelets used by Plow et al., Blood, 70, 110 (1987); and Garsky et al., Proc. Natl. Acad. Sci. U.S.A., 86, 4022 (1989) are gel-filtered to remove plasma proteins. Since the gel-filtration treatment may decrease the reactivity of the platelets, our assay avoids this step. The platelet count is adjusted by simply mixing PRP and PPP, which minimizes alterations of the platelets. Second, fibrinogen concentration in the Coller system is different from that of others. As shown in the experimental description of the assay, PRP was obtained from fresh blood and used immediately without further manipulation except for count adjustment. According to measurements obtained using this assay, such plasma contains ca. 3 mg of fibrinogen per 1 mL of plasma. On the other hand, fibrinogen concentration used in the Garsky and Plow assay system is 0.1 mg/mL. The concentration of fibrinogen affects the amount of RGD peptide required to inhibit platelet aggregation, with higher fibrinogen concentrations resulting in higher IC50 values. If there is a linear relationship between these two parameters, the IC50 values obtained from the Coller assay should be ca. 30 times larger than those obtained from the Plow et al. assay or the Garsky et al. assay. The adjusted IC50 values are presented in column 4 of Table showing the inhibitory activities of RGD peptides.
The following peptides were synthesized, and their amino acid contents were analyzed as described in procedures 3-7, above. In addition, their ability to inhibit aggregation of human platelet rich plasma was assessed as described in procedures 1 and 2, above. Their respective IC50 values, as well as their estimated IC50 adjusted to the values according the method of Plow et al., (vide supra) are listed in Table 1.

## N=C(N)NCCC[C@H](N)C(=O)NCC(=O)N[C@@H](CC(=O)O)C(=O)N[C@@H](Cc1ccccc1)C(=O)N1CCC[C@H]1C(=O)NCC(=O)Nc1cc(NC(=O)CNC(=O)[C@@H]2CCCN2C(=O)[C@H](Cc2ccccc2)NC(=O)[C@H](CC(=O)O)NC(=O)CNC(=O)[C@@H](N)CCCNC(=N)N)cc(C(=O)NCC(=O)O)c1 [Example 1, (RGDFPG)2 Dab--G--OH] (I: H-RGDFPG / II: H-RGDFPG; linker I:C-II:C via X2; N-terminus assumed)
  IC50 (M)* Estimated IC50 adjusted to the values by the method of Plow et al.: 6.7e-07 M

## N=C(N)NCCC[C@H](N)C(=O)NCC(=O)N[C@@H](CC(=O)O)C(=O)N[C@@H](Cc1ccccc1)C(=O)N1CCC[C@H]1C(=O)NCC(=O)Nc1cc(NC(=O)CNC(=O)[C@@H]2CCCN2C(=O)[C@H](Cc2ccccc2)NC(=O)[C@H](CC(=O)O)NC(=O)CNC(=O)[C@@H](N)CCCNC(=N)N)cc(C(N)=O)c1 [Example 2, (RGDFPG)2 Dab--NH2] (I: H-RGDFPG / II: H-RGDFPG; linker I:C-II:C via X1; N-terminus assumed)
  IC50 (M)* Estimated IC50 adjusted to the values by the method of Plow et al.: 4.2e-07 M

## N=C(N)NCCC[C@H](N)C(=O)NCC(=O)N[C@@H](CC(=O)O)C(=O)N[C@@H](Cc1ccccc1)C(=O)NCCCC[C@H](NC(=O)[C@H](Cc1ccccc1)NC(=O)[C@H](CC(=O)O)NC(=O)CNC(=O)[C@@H](N)CCCNC(=N)N)C(N)=O [Example 3, (RGDF)2 Lys--NH2]
  IC50 (M)* Estimated IC50 adjusted to the values by the method of Plow et al.: 1.2e-06 M

## N=C(N)NCCC[C@H](NC(=O)CN)C(=O)NCC(=O)N[C@@H](CC(=O)O)C(=O)N[C@@H](Cc1ccccc1)C(=O)NCCC[C@H](NC(=O)[C@H](Cc1ccccc1)NC(=O)[C@H](CC(=O)O)NC(=O)CNC(=O)[C@H](CCCNC(=N)N)NC(=O)CN)C(N)=O [Example 5, (GRGDF)2 Orn--NH2]
  IC50 (M)* Estimated IC50 adjusted to the values by the method of Plow et al.: 4.4e-06 M

## N=C(N)NCCC[C@H](NC(=O)c1ccccc1)C(=O)NCC(=O)N[C@@H](CC(=O)O)C(=O)N[C@@H](Cc1ccccc1)C(=O)NCCCC[C@H](NC(=O)[C@H](Cc1ccccc1)NC(=O)[C@H](CC(=O)O)NC(=O)CNC(=O)[C@H](CCCNC(=N)N)NC(=O)c1ccccc1)C(N)=O [Example 7, (BzRGDF)2 Lys--NH2]
  IC50 (M)* Estimated IC50 adjusted to the values by the method of Plow et al.: 2.9e-07 M

## CCCCCC(=O)N[C@@H](CCCNC(=N)N)C(=O)NCC(=O)N[C@@H](CC(=O)O)C(=O)N[C@@H](Cc1ccccc1)C(=O)NCCCC[C@H](NC(=O)[C@H](Cc1ccccc1)NC(=O)[C@H](CC(=O)O)NC(=O)CNC(=O)[C@H](CCCNC(=N)N)NC(=O)CCCCC)C(N)=O [Example 8, (HexRGDF)2 Lys--NH2]
  IC50 (M)* Estimated IC50 adjusted to the values by the method of Plow et al.: 7.6e-08 M

## N=C(N)NCCC[C@H](NC(=O)CCCC(=O)N[C@@H](CCCNC(=N)N)C(=O)NCC(=O)N[C@@H](CC(=O)O)C(=O)N[C@@H](Cc1ccccc1)C(=O)O)C(=O)NCC(=O)N[C@@H](CC(=O)O)C(=O)N[C@@H](Cc1ccccc1)C(=O)O [Example 13, Pda (RGDF--OH)2] (I: RGDF-OH / II: RGDF-OH; linker I:N-II:N via Glutaryl)
  IC50 (M)* Estimated IC50 adjusted to the values by the method of Plow et al.: 5e-07 M

## N=C(N)NCCC[C@H](NC(=O)CCCCC(=O)N[C@@H](CCCNC(=N)N)C(=O)NCC(=O)N[C@@H](CC(=O)O)C(=O)N[C@@H](Cc1ccccc1)C(=O)O)C(=O)NCC(=O)N[C@@H](CC(=O)O)C(=O)N[C@@H](Cc1ccccc1)C(=O)O [Example 14, Bda(RGDF--OH)2] (I: RGDF-OH / II: RGDF-OH; linker I:N-II:N via Adipoyl)
  IC50 (M)* Estimated IC50 adjusted to the values by the method of Plow et al.: 4.7e-07 M

## N=C(N)NCCC[C@H](NC(=O)CN)C(=O)NCC(=O)N[C@@H](CC(=O)O)C(=O)N[C@@H](Cc1ccccc1)C(=O)NCC(=O)Nc1cc(NC(=O)CNC(=O)[C@H](Cc2ccccc2)NC(=O)[C@H](CC(=O)O)NC(=O)CNC(=O)[C@H](CCCNC(=N)N)NC(=O)CN)cc(C(=O)NCC(=O)N[C@@H](CCCNC(=N)N)C(=O)NCC(=O)N[C@@H](CC(=O)O)C(=O)N[C@@H](Cc2ccccc2)C(N)=O)c1 [Example 15, (GRGDFG)2 Dab--GRGDF--NH2]
  IC50 (M)* Estimated IC50 adjusted to the values by the method of Plow et al.: 1.1e-06 M

## N=C(N)NCCC[C@H](NC(=O)C1CC(NC(=O)[C@H](Cc2ccccc2)NC(=O)[C@H](CC(=O)O)NC(=O)CNC(=O)[C@@H](N)CCCNC(=N)N)CC(NC(=O)[C@H](Cc2ccccc2)NC(=O)[C@H](CC(=O)O)NC(=O)CNC(=O)[C@@H](N)CCCNC(=N)N)C1)C(=O)NCC(=O)N[C@@H](CC(=O)O)C(=O)N[C@@H](Cc1ccccc1)C(=O)O (some centres unmarked) [Example 16, (RGDF)2 Dac--RGDF--OH]
  IC50 (M)* Estimated IC50 adjusted to the values by the method of Plow et al.: 7.2e-07 M

## N=C(N)NCCC[C@H](NC(=O)CN)C(=O)NCC(=O)N[C@@H](CC(=O)O)C(=O)N[C@@H](Cc1ccccc1)C(=O)NCCCC[C@H](NC(=O)[C@H](Cc1ccccc1)NC(=O)[C@H](CC(=O)O)NC(=O)CNC(=O)[C@H](CCCNC(=N)N)NC(=O)CN)C(=O)NCC(=O)N[C@@H](CCCNC(=N)N)C(=O)NCC(=O)N[C@@H](CC(=O)O)C(=O)N[C@@H](Cc1ccccc1)C(N)=O [Example 17, (GRGDF)2 Lys--GRGDF--NH2]
  IC50 (M)* Estimated IC50 adjusted to the values by the method of Plow et al.: 1.7e-06 M

## N=C(N)NCCC[C@H](NC(=O)CN)C(=O)NCC(=O)N[C@@H](CC(=O)O)C(=O)N[C@@H](Cc1ccccc1)C(=O)NCCC[C@H](NC(=O)[C@H](Cc1ccccc1)NC(=O)[C@H](CC(=O)O)NC(=O)CNC(=O)[C@H](CCCNC(=N)N)NC(=O)CN)C(=O)NCC(=O)N[C@@H](CCCNC(=N)N)C(=O)NCC(=O)N[C@@H](CC(=O)O)C(=O)N[C@@H](Cc1ccccc1)C(N)=O [Example 18, (GRGDF)2 Orn--GRGDF--NH2]
  IC50 (M)* Estimated IC50 adjusted to the values by the method of Plow et al.: 2.1e-06 M

## N=C(N)NCCC[C@H](NC(=O)CN)C(=O)NCC(=O)N[C@@H](CC(=O)O)C(=O)N[C@@H](Cc1ccccc1)C(=O)NCC(=O)Nc1ccc(C(=O)NCC(=O)N[C@@H](CCCNC(=N)N)C(=O)NCC(=O)N[C@@H](CC(=O)O)C(=O)N[C@@H](Cc2ccccc2)C(=O)O)cc1 [Example 21, GRGDFG--(p)Abz--GRGDF--OH] (H-GRGDFG[4Abz]GRGDF-OH)
  IC50 (M)* Estimated IC50 adjusted to the values by the method of Plow et al.: 1.2e-06 M

## N=C(N)NCCC[C@H](NC(=O)CN)C(=O)NCC(=O)N[C@@H](CC(=O)O)C(=O)N[C@@H](Cc1ccccc1)C(=O)NCC(=O)Nc1ccccc1C(=O)NCC(=O)N[C@@H](CCCNC(=N)N)C(=O)NCC(=O)N[C@@H](CC(=O)O)C(=O)N[C@@H](Cc1ccccc1)C(N)=O [Example 22, GRGDFG-(o)Abz--GRGDF--NH2] (H-GRGDFG[2Abz]GRGDF-NH2)
  IC50 (M)* Estimated IC50 adjusted to the values by the method of Plow et al.: 3.1e-06 M

## N=C(N)NCCC[C@H](NC(=O)CN)C(=O)NCC(=O)N[C@@H](CC(=O)O)C(=O)N[C@@H](Cc1ccccc1)C(=O)NCC(=O)Nc1ccc(C(=O)NCC(=O)N[C@@H](CCCNC(=N)N)C(=O)NCC(=O)N[C@@H](CC(=O)O)C(=O)N[C@@H](Cc2ccccc2)C(N)=O)cc1 [Example 24, GRGDFG--(p)Abz--GRGDF--NH2] (H-GRGDFG[4Abz]GRGDF-NH2)
  IC50 (M)* Estimated IC50 adjusted to the values by the method of Plow et al.: 2.1e-06 M

## N=C(N)NCCC[C@H](NC(=O)CN)C(=O)NCC(=O)N[C@@H](CC(=O)O)C(=O)N[C@@H](CO)C(=O)NCC(=O)Nc1cccc(C(=O)NCC(=O)N[C@@H](CCCNC(=N)N)C(=O)NCC(=O)N[C@@H](CC(=O)O)C(=O)N[C@@H](Cc2ccccc2)C(N)=O)c1 [Example 26, GRGDSG--(m)Abz--GRGDF--NH2] (H-GRGDSG[3Abz]GRGDF-NH2)
  IC50 (M)* Estimated IC50 adjusted to the values by the method of Plow et al.: 3e-06 M

## N=C(N)NCCC[C@H](NC(=O)CN)C(=O)NCC(=O)N[C@@H](CC(=O)O)C(=O)N[C@@H](CO)C(=O)NCC(=O)Nc1ccc(C(=O)NCC(=O)N[C@@H](CCCNC(=N)N)C(=O)NCC(=O)N[C@@H](CC(=O)O)C(=O)N[C@@H](Cc2ccccc2)C(N)=O)cc1 [Example 27, GRGDSG-(p)Abz--GRGDF--NH2] (H-GRGDSG[4Abz]GRGDF-NH2)
  IC50 (M)* Estimated IC50 adjusted to the values by the method of Plow et al.: 1.7e-06 M
